The target in this test is T1, Glucocorticoid receptor (Homo sapiens, UniProt P04150).
T1 sequence (P04150 whole entry): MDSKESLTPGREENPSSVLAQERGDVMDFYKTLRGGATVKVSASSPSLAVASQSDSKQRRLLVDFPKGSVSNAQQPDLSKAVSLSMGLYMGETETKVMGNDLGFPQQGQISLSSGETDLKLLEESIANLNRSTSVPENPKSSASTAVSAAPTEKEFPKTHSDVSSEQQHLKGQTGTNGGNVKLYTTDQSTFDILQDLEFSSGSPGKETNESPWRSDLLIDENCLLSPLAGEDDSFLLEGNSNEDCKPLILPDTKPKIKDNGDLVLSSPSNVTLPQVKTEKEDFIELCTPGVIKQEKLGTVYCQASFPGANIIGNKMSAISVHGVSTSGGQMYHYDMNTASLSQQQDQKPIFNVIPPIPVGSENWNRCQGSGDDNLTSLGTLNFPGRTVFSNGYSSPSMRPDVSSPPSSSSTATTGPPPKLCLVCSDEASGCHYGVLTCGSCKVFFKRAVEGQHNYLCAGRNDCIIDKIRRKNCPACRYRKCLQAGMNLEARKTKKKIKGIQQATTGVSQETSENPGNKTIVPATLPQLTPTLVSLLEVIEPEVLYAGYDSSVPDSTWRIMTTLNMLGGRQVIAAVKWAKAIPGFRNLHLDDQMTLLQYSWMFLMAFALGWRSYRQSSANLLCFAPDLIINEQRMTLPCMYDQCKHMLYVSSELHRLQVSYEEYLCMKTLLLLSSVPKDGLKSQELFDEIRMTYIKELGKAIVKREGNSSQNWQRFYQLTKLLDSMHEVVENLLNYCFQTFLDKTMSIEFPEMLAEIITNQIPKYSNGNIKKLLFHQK
The test is described as follows: GR-Mediated Antagonist Activity Assay and IL-6 Repression Assay. To be noted: pH 7.5. As to the method:
Potencies of compounds are reported as the concentration at which they reach half their antagonist (IC50) activity. IL-6 Repression Assay- The GR-mediated repression of IL-6 production in a human fibroblast (NHDFneo) cell line is measured with a modified ELISA assay.

A word on the EC50: it is the concentration giving half of the maximal effect. Broadly, the IC50 is the point on the concentration scale where inhibition reaches its midpoint. Higher therefore signals a need for much substance. Regarding `COc1c(O)ccc2c1-c1ccc3c(c1/C(=C/c1sccc1[C@H](O)C(F)(F)F)O2)C(C)=CC(C)(C)N3` [(18Z)-12-methoxy-3,5,5-trimethyl-18-({3-[(1S)-2,2,2-trifluoro-1-hydroxyethyl]thiophen-2-yl}methylidene)-17-oxa-6-azatetracyclo[8.8.0.0^{2,7}.0^{11,16}]octadeca-1(10),2(7),3,8,11,13,15-heptaen-13-ol], a half-maximal effect (EC50) was put at 0.2 nM and inhibition was half-maximal at 0.2 nM (IC50).
Compound `COc1c(O)ccc2c1-c1ccc3c(c1/C(=C/c1sccc1[C@@H](O)C(F)(F)F)O2)C(C)=CC(C)(C)N3` [(18Z)-12-methoxy-3,5,5-trimethyl-18-({3-[(1R)-2,2,2-trifluoro-1-hydroxyethyl]thiophen-2-yl}methylidene)-17-oxa-6-azatetracyclo[8.8.0.0^{2,7}.0^{11,16}]octadeca-1(10),2(7),3,8,11,13,15-heptaen-13-ol] displayed an EC50 of 1.4 nM and an IC50 of 0.6 nM.
`COc1c(O)ccc2c1-c1ccc3c(c1C(=Cc1sccc1C(=O)C1CCCCC1)O2)C(C)=CC(C)(C)N3` [(18Z)-18-[(3-cyclohexanecarbonylthiophen-2-yl)methylidene]-12-methoxy-3,5,5-trimethyl-17-oxa-6-azatetracyclo[8.8.0.0^{2,7}.0^{11,16}]octadeca-1(10),2(7),3,8,11,13,15-heptaen-13-ol] yielded an IC50 of 1 nM.
As for `CCCCC(O)c1ccsc1/C=C1\Oc2ccc(O)c(OC)c2-c2ccc3c(c21)C(C)=CC(C)(C)N3` (stereo unspecified) [(18Z)-18-{[3-(1-hydroxypentyl)thiophen-2-yl]methylidene}-12-methoxy-3,5,5-trimethyl-17-oxa-6-azatetracyclo[8.8.0.0^{2,7}.0^{11,16}]octadeca-1(10),2(7),3,8,11,13,15-heptaen-13-ol], the IC50 was found to be 0.9 nM.
